According to patent EP4268823A1, “COMPOUND FOR TREATING NEUROINFLAMMATION” (Universitätsklinikum Hamburg-Eppendorf, priority 2022, dated 2023):

Target: T1, G9a (Homo sapiens, UniProt Q96KQ7)
T1 construct: H3K9me2 immunostaining and quantification in response to ferroptosis induction with erastin in hiPSC neurons; endogenous in cells; host or cells: neurons differentiated from human iPSCs (ZIPi013-B)
T1 sequence (Q96KQ7 1-1210): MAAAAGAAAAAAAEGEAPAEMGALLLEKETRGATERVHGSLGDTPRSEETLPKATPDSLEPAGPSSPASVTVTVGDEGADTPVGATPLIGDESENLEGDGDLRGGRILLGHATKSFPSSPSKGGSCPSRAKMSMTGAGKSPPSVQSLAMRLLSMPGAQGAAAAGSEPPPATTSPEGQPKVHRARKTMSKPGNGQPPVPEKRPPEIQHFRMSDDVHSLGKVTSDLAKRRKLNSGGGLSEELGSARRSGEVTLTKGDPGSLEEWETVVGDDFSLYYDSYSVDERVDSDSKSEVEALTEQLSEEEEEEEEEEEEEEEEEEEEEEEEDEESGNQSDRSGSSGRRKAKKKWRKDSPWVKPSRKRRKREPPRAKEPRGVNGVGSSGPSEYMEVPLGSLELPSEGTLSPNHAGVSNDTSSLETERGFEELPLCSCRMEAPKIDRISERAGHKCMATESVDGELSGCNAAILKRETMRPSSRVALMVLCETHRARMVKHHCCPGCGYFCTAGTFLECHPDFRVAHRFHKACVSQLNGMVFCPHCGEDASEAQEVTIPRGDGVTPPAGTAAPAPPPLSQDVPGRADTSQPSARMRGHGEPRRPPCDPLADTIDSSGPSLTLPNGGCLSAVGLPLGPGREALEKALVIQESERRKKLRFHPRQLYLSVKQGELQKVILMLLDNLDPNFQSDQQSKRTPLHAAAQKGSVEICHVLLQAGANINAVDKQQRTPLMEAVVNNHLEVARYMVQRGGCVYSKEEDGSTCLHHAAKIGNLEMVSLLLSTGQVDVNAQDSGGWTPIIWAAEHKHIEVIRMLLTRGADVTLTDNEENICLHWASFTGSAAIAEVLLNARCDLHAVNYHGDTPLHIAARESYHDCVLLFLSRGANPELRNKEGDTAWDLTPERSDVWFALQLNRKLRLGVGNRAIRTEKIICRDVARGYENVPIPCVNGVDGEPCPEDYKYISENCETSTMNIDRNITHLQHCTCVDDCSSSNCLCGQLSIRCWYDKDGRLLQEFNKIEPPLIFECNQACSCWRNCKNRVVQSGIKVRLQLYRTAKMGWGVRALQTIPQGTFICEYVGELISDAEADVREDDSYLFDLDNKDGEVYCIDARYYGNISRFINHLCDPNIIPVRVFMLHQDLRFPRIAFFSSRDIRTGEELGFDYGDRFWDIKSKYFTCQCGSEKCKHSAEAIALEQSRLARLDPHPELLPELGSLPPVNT
Experiment: H3K9me2 immunostaining in hiPSC neurons after erastin
Type: cell-based
Conditions: erastin + UNC0642
Text: Human iPSCs (ZIPi013-B) (83) were maintained under feeder-free conditions on Matrigel (Corning)-coated plates in mTeSR1 medium (Stem Cell Technologies, cat. no. 85850). For neuronal induction, iPSCs were dissociated with Accutase and seeded at a density of 3 × 10^6 cells per well on AggreWell800 plates (10,000 cells per embryoid body (EB), Stem Cell Technologies) in SMADi Neural Induction Medium (SMADi NIM, Stem Cell Technologies, cat. no. 08582) supplemented with […] (Stem Cell Technologies, cat. no. 72302). On day 6, EBs were harvested and cultivated on Matrigel-coated plates in SMADi NIM for 12 days. Newly formed neural rosettes were manually picked and cultured for another 4 days. In order to release neural precursor cells (NPCs), neural rosettes were dissociated with Accutase and were maintained for several passages at high density in Neural Progenitor Medium (Stem Cell Technologies, cat. no. 05833) on Matrigel-coated plates. HiPSC-derived NPCs were differentiated into neurons as previously described (84, 85) with some modifications. Briefly, NPCs were seeded at a density of 1 × 10^5 cells per cm^2 in Neural Progenitor Medium onto Matrigel-coated plates. […]
Immunocytochemistry was performed as described previously (15). […] Immunostainings were analyzed with a Zeiss LSM 700 confocal microscope.

**Q.** For `COc1cc2c(NC3CCN(C(C)C)CC3)nc(N3CCC(F)(F)CC3)nc2cc1OCCCN1CCCC1` [UNC0642, 2-(4,4-difluoropiperidin-1-yl)-6-methoxy-N-[1-(propan-2-yl)piperidin-4-yl]-7-[3-(pyrrolidin-1-yl)propoxy]quinazolin-4-amine], which “increase of H3K9me2 levels in response to erastin-induced ferroptosis” value is on record?
**A.** rescued
